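Values below derive from 48-hour exposures of cells grown in 96-well plates, with endpoints linearly interpolated between the two concentrations bracketing the appropriate inhibition level. GI50: concentration for 50% inhibition of growth. TGI denotes the concentration required for complete inhibition of growth.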
Columns and labels:
Experiment in all cases: growth of human tumour cells (NCI), 48 h
[1] = tested on: SF-539 CNS
[2] = tested on: NCI-H460 lung
[3] = tested on: RPMI-8226 leukemia
[4] = tested on: OVCAR-3 ovarian
[5] = tested on: MDA-MB-435
[6] = tested on: KM12 colon
[7] = tested on: OVCAR-8 ovarian
[8] = tested on: SF-295 CNS
[9] = tested on: EKVX NSCLC
[10] = tested on: NCI/ADR-RES ovarian
[11] = tested on: A498 renal
[12] = tested on: K-562 leukemia
[13] = tested on: UACC-257 melanoma
[14] = tested on: MOLT-4 leukemia
[15] = tested on: SK-OV-3 ovarian
[16] = tested on: UACC-62 melanoma
[17] = tested on: LOX IMVI melanoma
[18] = tested on: PC-3 prostate
[19] = tested on: OVCAR-5 ovarian
[20] = tested on: NCI-H23 lung
[21] = tested on: RXF 393 renal
[22] = tested on: IGROV1 ovarian
[23] = tested on: U251 CNS
[24] = tested on: 786-0 renal
[25] = tested on: HCT-116 colon
[26] = tested on: T-47D breast
[27] = tested on: HS 578T breast
[28] = tested on: A549 NSCLC
[29] = tested on: MALME-3M melanoma
[30] = tested on: SR leukemia
[31] = tested on: NCI-H226 lung
[32] = tested on: HL-60(TB) leukemia
[33] = tested on: DU-145 prostate
[34] = tested on: SW-620 colon
[35] = tested on: COLO 205 colon
[36] = tested on: SK-MEL-5 melanoma
[37] = tested on: SK-MEL-2 melanoma
[38] = tested on: MDA-MB-231 breast
[39] = tested on: CAKI-1 renal
[40] = tested on: M14 melanoma
[41] = tested on: SK-MEL-28 melanoma
[42] = tested on: MCF7 breast
[43] = tested on: TK-10 renal
[44] = tested on: UO-31 renal
[45] = tested on: HCT-15 colon
[46] = tested on: HOP-62 NSCLC
[47] = tested on: NCI-H522 lung
[48] = tested on: SN12C renal
[49] = tested on: OVCAR-4 ovarian
[50] = tested on: SNB-19 CNS
[51] = tested on: SF-268 CNS

`Nc1cc(N)c2nc(-c3ccccc3)c(Nc3ccc(Cl)c(Cl)c3)nc2c1` was tested. Which GI50 [1] did it give?
The GI50 was 17.1 µM.

What about the TGI [1] of the same molecule?
Its TGI is 35.3 µM.

And the GI50 [2]?
Its GI50 is 8.27 µM.

What about the TGI [2] of the same molecule?
The TGI was 22.9 µM.

And the GI50 [3]?
Its GI50 is 2 µM.

What about the TGI [3] of the same molecule?
The TGI was 4.92 µM.

And the GI50 [4]?
The GI50 was 2.93 µM.

And the TGI [4]?
The TGI was 9.91 µM.

What about the GI50 [5] of the same molecule?
Its GI50 is 2.16 µM.

What about the TGI [5] of the same molecule?
Its TGI is 4.59 µM.

What about the GI50 [6] of the same molecule?
Its GI50 is 5.89 µM.

And the TGI [6]?
Its TGI is 24.6 µM.

And the GI50 [7]?
The GI50 was 5.18 µM.

And the TGI [7]?
The TGI was 79.8 µM.

What about the GI50 [8] of the same molecule?
Its GI50 is 12.4 µM.

And the TGI [8]?
Its TGI is 27.9 µM.

And the GI50 [9]?
Its GI50 is 3.83 µM.

And the TGI [9]?
The TGI was 16.2 µM.

And the GI50 [10]?
Its GI50 is 15.4 µM.

What about the TGI [10] of the same molecule?
Its TGI is 55.3 µM.

What about the GI50 [11] of the same molecule?
Its GI50 is 12.1 µM.

And the TGI [11]?
Its TGI is 26.3 µM.

And the GI50 [12]?
Its GI50 is 3.57 µM.

And the TGI [12]?
The TGI was greater than 100 µM.

What about the GI50 [13] of the same molecule?
The GI50 was 11.4 µM.

And the TGI [13]?
The TGI was 28.2 µM.

What about the GI50 [14] of the same molecule?
Its GI50 is 4.05 µM.

What about the TGI [14] of the same molecule?
The TGI was greater than 100 µM.

What about the GI50 [15] of the same molecule?
Its GI50 is 13.7 µM.

What about the TGI [15] of the same molecule?
Its TGI is 31.3 µM.

What about the GI50 [16] of the same molecule?
The GI50 was 13.1 µM.

What about the TGI [16] of the same molecule?
Its TGI is 29.9 µM.

What about the GI50 [17] of the same molecule?
Its GI50 is 4.38 µM.

And the TGI [17]?
The TGI was greater than 100 µM.

And the GI50 [18]?
The GI50 was 3.12 µM.

And the TGI [18]?
The TGI was 15.1 µM.

What about the GI50 [19] of the same molecule?
The GI50 was 28 µM.

What about the TGI [19] of the same molecule?
Its TGI is 48.7 µM.

And the GI50 [20]?
The GI50 was 19.1 µM.

And the TGI [20]?
The TGI was 55.2 µM.

And the GI50 [21]?
Its GI50 is 6.23 µM.

What about the TGI [21] of the same molecule?
The TGI was 31.2 µM.

What about the GI50 [22] of the same molecule?
The GI50 was 4.92 µM.

And the TGI [22]?
The TGI was 21.1 µM.

What about the GI50 [23] of the same molecule?
Its GI50 is 4.68 µM.

What about the TGI [23] of the same molecule?
The TGI was greater than 100 µM.

What about the GI50 [24] of the same molecule?
Its GI50 is 14.7 µM.

And the TGI [24]?
Its TGI is 37 µM.

And the GI50 [25]?
The GI50 was 10.6 µM.

And the TGI [25]?
Its TGI is 53 µM.

And the GI50 [26]?
The GI50 was 11.6 µM.

What about the TGI [26] of the same molecule?
The TGI was 31.1 µM.

What about the GI50 [27] of the same molecule?
The GI50 was 18.9 µM.

What about the TGI [27] of the same molecule?
The TGI was 51.7 µM.

What about the GI50 [28] of the same molecule?
The GI50 was 10.8 µM.

What about the TGI [28] of the same molecule?
Its TGI is 34.7 µM.

What about the GI50 [29] of the same molecule?
The GI50 was 10.3 µM.

What about the TGI [29] of the same molecule?
The TGI was 24.3 µM.

What about the GI50 [30] of the same molecule?
Its GI50 is 2.56 µM.

And the TGI [30]?
Its TGI is 15.5 µM.

And the GI50 [31]?
The GI50 was 17.5 µM.

What about the TGI [31] of the same molecule?
Its TGI is 37.6 µM.

What about the GI50 [32] of the same molecule?
The GI50 was 2.59 µM.

What about the TGI [32] of the same molecule?
The TGI was 71.7 µM.

What about the GI50 [33] of the same molecule?
The GI50 was 16.7 µM.

And the TGI [33]?
Its TGI is 32.6 µM.

What about the GI50 [34] of the same molecule?
Its GI50 is 13.3 µM.

What about the TGI [34] of the same molecule?
The TGI was 51.8 µM.

What about the GI50 [35] of the same molecule?
The GI50 was 11.7 µM.

What about the TGI [35] of the same molecule?
The TGI was 31.3 µM.

And the GI50 [36]?
The GI50 was 11 µM.

What about the TGI [36] of the same molecule?
Its TGI is 25.5 µM.

What about the GI50 [37] of the same molecule?
The GI50 was 2.32 µM.

And the TGI [37]?
Its TGI is 19.1 µM.

And the GI50 [38]?
Its GI50 is 5.72 µM.

What about the TGI [38] of the same molecule?
Its TGI is 27.8 µM.

And the GI50 [39]?
Its GI50 is 13.5 µM.

What about the TGI [39] of the same molecule?
Its TGI is 29.6 µM.

What about the GI50 [40] of the same molecule?
The GI50 was 14.7 µM.

What about the TGI [40] of the same molecule?
The TGI was 60 µM.

What about the GI50 [41] of the same molecule?
The GI50 was 16.1 µM.

What about the TGI [41] of the same molecule?
Its TGI is 44.2 µM.

What about the GI50 [42] of the same molecule?
Its GI50 is 4.96 µM.

And the TGI [42]?
Its TGI is 21.1 µM.

And the GI50 [43]?
Its GI50 is 13.7 µM.

What about the TGI [43] of the same molecule?
The TGI was 30.1 µM.

And the GI50 [44]?
Its GI50 is 11.1 µM.

What about the TGI [44] of the same molecule?
Its TGI is 36.3 µM.

And the GI50 [45]?
The GI50 was 21.2 µM.

What about the TGI [45] of the same molecule?
Its TGI is greater than 100 µM.

What about the GI50 [46] of the same molecule?
Its GI50 is 17.5 µM.

What about the TGI [46] of the same molecule?
The TGI was 38.4 µM.

What about the GI50 [47] of the same molecule?
Its GI50 is 5.3 µM.

And the TGI [47]?
Its TGI is 21.7 µM.

And the GI50 [48]?
The GI50 was 12.7 µM.

What about the TGI [48] of the same molecule?
The TGI was 31.8 µM.

What about the GI50 [49] of the same molecule?
The GI50 was 11.1 µM.

What about the TGI [49] of the same molecule?
Its TGI is 47.8 µM.

And the GI50 [50]?
Its GI50 is 12.9 µM.

And the TGI [50]?
Its TGI is 30.2 µM.

And the GI50 [51]?
The GI50 was 12 µM.

What about the TGI [51] of the same molecule?
The TGI was 28.6 µM.
